Data taken from patent US9000028B2, “Indole and indazole compounds as an inhibitor of cellular necrosis” (LG Life Sciences Ltd., priority 2007, dated 2015).

System: primary hepatocytes isolated from rats
Assay: Hepatocyte protective effect against substances deriving hepatocyte toxicity (WST-1 viability)
Assay type: cell-based
Conditions: Rattus norvegicus, Hepatocyte, doxorubicin, 24-48 h, read-out: EC50, cell protective effects against doxorubicin in hepatocytes
Description: Various endogenous/exogenous attacks on the cells trigger the mechanisms of cell death which is broadly classified into two types, i.e. apoptosis or necrosis. Using these cell death mechanisms, in the present experimental example, primary hepatocytes isolated from rats were treated with drugs which were clinically shown to result in serious side-effects of hepatocyte toxicity or various chemicals which derive cell death, and the compounds synthesized in the Examples were estimated for their hepatocyte protective effects, after 24-48 h. The substances used to derive hepatocyte death include CCl4, ActD, H2O2, doxorubicin, anti-Fas Ab/Actinomycin D, acetaminophen, EtOH, CdCl2, palmitate, stearate, cyclophosphamide, terfenadine, diclofenac, simvastatin, and adefovir. Primary hepatocytes were isolated using the method of Seglen PO (Experimental Cell Research 74 (1972) pp 450-454). Briefly, hepatocytes were isolated according to the two-step collagenase perfusion method, and dead cells were removed by low speed (500 rpm) centrifugation for 10 min using percoll gradient (Kreamer B L etc, In Vitro Cellular & Developmental Biology 22 (1986) pp 201-211). During this step, the viability of cells was maintained 90% or above. The cells were suspended in HepatoZYME media (Gibco BRL), and the number of cells was counted. 1.5×10^4 cells in 100 μl were placed into the collagen-coated 96-well plate (BD biocoat), and adhered on the bottom for 3-4 h.
In order to assess the hepatocyte protective effect, above adhered cells were pretreated with the Example compounds for 30 min. At this time, the concentration of the Example compounds were serially diluted by 2-fold or 3-fold over 5 steps starting from 30 uM, 10 uM or 1 uM depending on the experiments, and the final concentration of DMSO was adjusted to 0.2%. 30 min after the treatment by compounds, cells were treated by the substances deriving hepatocyte death or hepatotoxic drugs at the concentrations indicated in Table 1. After 24-48 h, the viability of cells was determined to estimate the hepatocyte protective effects. The viability of cells was determined using WST-1 (MK-400, […]) method by the absorbance at 440 nm. Hepatocyte protective effects of the Example compounds were represented by “EC50,” which was calculated from measured values. “EC50” herein means the concentration of the compound at which 50% of maximum protective effect is observed in the experiment.

SMILES	EC50
Cc1cc(NC2CCN(S(C)(=O)=O)CC2)c2[nH]c(-c3ccccc3)cc2c1 [Example 91, [1-(Methanesulfonyl)piperidin-4-yl]-(5-methyl-2-phenyl-1H-indol-7-yl)-amine]	42 nM
Cc1cc(NC2CCN(C(=O)CO)CC2)c2[nH]c(-c3ccccc3)cc2c1 [Example 92, 2-Hydroxy-1-[4-(5-methyl-2-phenyl-1H-indol-7-yl)amino-piperidin-1-yl]-ethanone]	36 nM
Clc1cc(NC2CCNCC2)c2[nH]c(-c3ccccc3)cc2c1 [Example 93, (5-Chloro-2-phenyl-1H-indol-7-yl)-piperidin-4-yl-amine]	160 nM
O=C(Nc1ccccc1)N1CCC(Nc2cc(Cl)cc3cc(-c4ccccc4)[nH]c23)CC1 [Example 94, 4-(5-Chloro-2-phenyl-1H-indol-7-yl)amino-piperidin-1-yl-carboxylic acid phenylamide]	80 nM
CN(C)CC(=O)N1CCC(Nc2cc(Cl)cc3cc(-c4ccccc4)[nH]c23)CC1 [Example 95, 1-[4-(5-Chloro-2-phenyl-1H-indol-7-yl)amino-piperidin-1-yl]-2-dimethylamino-ethanone]	210 nM
O=S1(=O)CCN(Cc2cc(NCC3CCNCC3)c3[nH]c(-c4ccccc4)cc3c2)CC1 [Example 96, [5-(1,1-Dioxo-thiomorpholin-4-yl)methyl-2-phenyl-1H-indol-7-yl]-(piperidin-4-yl)methyl-amine]	120 nM
O=C(C1CCCO1)N1CCC(Nc2cc(CN3CCS(=O)(=O)CC3)cc3cc(-c4ccccc4)[nH]c23)CC1 (centres unmarked) [Example 98, {4-[5-(1,1-Dioxo-thiomorpholin-4-yl)methyl-2-phenyl-1H-indol-7-yl]amino-piperidin-1-yl}-(tetrahydrofuran-2-yl)-methanone]	110 nM
O=S1(=O)CCC(N2CCC(Nc3cc(F)cc4cc(-c5ccccc5)[nH]c34)CC2)CC1 [Example 99, (5-Fluoro-2-phenyl-1H-indol-7-yl)-[1-(1,1-dioxo-tetrahydrothiopyran-4-yl)-piperidin-4-yl]-amine]	200 nM
CN(C)C1CCC(Nc2cc(Cl)cc3cc(-c4ccccc4)[nH]c23)CC1 (centres unmarked) [Example 100, N-(5-chloro-2-phenyl-1H-indol-7-yl)-N′,N′-dimethyl-cyclohexane-1,4-diamine]	80 nM
CNC1CCC(Nc2cc(Cl)cc3cc(-c4ccccc4)[nH]c23)CC1 (centres unmarked) [Example 101, N-(5-chloro-2-phenyl-1H-indol-7-yl)-N′-methyl-cyclohexane-1,4-diamine]	80 nM
O=C(O)C1CCC(Nc2cc(Cl)cc3cc(-c4ccccc4)[nH]c23)CC1 (centres unmarked) [Example 102, 4-(5-Chloro-2-phenyl-1H-indol-7-yl)amino-cyclohexane-1-carboxylic acid]	300 nM
Cc1cc(NC2CCC(C(=O)O)CC2)c2[nH]c(-c3ccccc3)cc2c1 (centres unmarked) [Example 103, 4-(5-Methyl-2-phenyl-1H-indol-7-yl)amino-cyclohexane-1-carboxylic acid]	106 nM
NC(=O)C1CCC(Nc2cc(Cl)cc3cc(-c4ccccc4)[nH]c23)CC1 (centres unmarked) [Example 104, 4-(5-Chloro-2-phenyl-1H-indol-7-yl)amino-cyclohexane-1-carboxylic acid amide]	80 nM
CNC(=O)C1CCC(Nc2cc(Cl)cc3cc(-c4ccccc4)[nH]c23)CC1 (centres unmarked) [Example 105, 4-(5-Chloro-2-phenyl-1H-indol-7-yl)amino-cyclohexanecarboxylic acid methylamide]	70 nM
O=C(O)CNc1cc(Oc2ccccc2)cc2cc(-c3ccccc3)[nH]c12 [Example 109, 2-[(5-Phenoxy-2-phenyl-1H-indol-7-yl)amino]-acetic acid]	257 nM
CC(Nc1cc(Oc2ccccc2)cc2cc(-c3ccccc3)[nH]c12)C(=O)O (centres unmarked) [Example 111, 2-(5-Phenoxy-2-phenyl-1H-indol-7-yl)amino-propionic acid]	257 nM
CC(Nc1cc(Cl)cc2cc(-c3ccccc3)[nH]c12)C(=O)O (centres unmarked) [Example 112, 2-(5-Chloro-2-phenyl-1H-indol-7-yl)amino-propionic acid]	450 nM
